Molecules are shown by their SMILES.

From patent US6747032B2, “Pyrimidin-4-one compounds” (Les Laboratoires Servier, priority 2001, dated 2004) come the findings set out here.

One assay addresses T1, 5-HT2c receptors (Rattus norvegicus, UniProt P08909).
T1 construct: from tissue; host or cells: whole animal (male Wistar rat, in vivo)
T1 sequence (P08909 33-460): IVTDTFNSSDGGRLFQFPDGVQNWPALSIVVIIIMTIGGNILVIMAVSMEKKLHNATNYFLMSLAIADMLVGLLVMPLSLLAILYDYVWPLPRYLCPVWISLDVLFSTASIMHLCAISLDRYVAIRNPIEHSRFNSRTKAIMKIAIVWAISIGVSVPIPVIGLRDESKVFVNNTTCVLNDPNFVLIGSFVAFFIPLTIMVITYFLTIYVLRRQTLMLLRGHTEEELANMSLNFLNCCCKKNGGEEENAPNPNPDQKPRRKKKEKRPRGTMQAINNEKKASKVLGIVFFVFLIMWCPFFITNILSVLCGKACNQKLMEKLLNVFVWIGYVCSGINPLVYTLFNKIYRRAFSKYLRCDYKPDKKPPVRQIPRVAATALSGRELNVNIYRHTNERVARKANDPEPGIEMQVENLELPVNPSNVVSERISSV
As to the kind of experiment: Penile erection test in the rat (erections caused by RO 60-0175). It counts as in vivo. Conditions: sc, male Wistar rats, s.c., compound 30 min before RO 60-0175 (1.25 mg/kg s.c.), erections counted over 30 min, read-out: inhibitory dose 50 (ID50), inhibition of penile erections caused by RO 60-0175. As for the experimental part:
This test allows evaluation of the capacity of pharmacological agents to inhibit penile erections caused by administration of a selective 5-HT2c agonist, RO 60-0175.
Male rats of the Wistar strain weighing 120-140 g on the day of the experiment are placed separately in plexiglass observation boxes immediately after the compound under test or the vehicle has been administered. Thirty minutes later, RO 60-0175 (1.25 mg/kg, subcutaneous) is administered to the animals and the number of erections occurring during the next 30 minutes is counted.

Another assay concerns male CD-1 mice. As to the kind of experiment: Test for aggressiveness caused by isolation, in the mouse. The format is in vivo. Conditions: isolated male CD-1 mice, i.p., 30 min before test, measured over three minutes. As for the experimental part: The animals used are male CD-1 mice. From the time of their arrival, the mice are isolated in individual cages, with free access to food and drink. After a period of one month of isolation, pairs of mice that are stable in terms of aggressiveness are selected by observing the latency period and the number and the duration of attacks when the mice are placed in the presence of one another.
The test is conducted once per week. On the day of the test, each mouse of the pair (resident and intruder) is given an intraperitoneal injection of the vehicle (control animals) or of the compound under test (treated animals) in a volume of 10 ml/kg. After 30 minutes, the intruder mouse is introduced into the cage of the resident mouse. The latency period until the first attack and the number and the duration of attacks are then measured over a period of three minutes.
A compound is considered to be specifically anti-aggressive when it reduces the number and the duration of attacks at non-sedative doses.

Assay [1] has as its system male mice of the NMRI strain. As to the kind of experiment: Marble-burying test in the mouse. The format is in vivo. As to conditions: s.c., 30 minutes' exploration, 24 marbles. The text has this:
This test allows evaluation of the capacity of pharmacological agents to inhibit spontaneous marble-burying behaviour in the mouse, the inhibition being predictive of antidepressant and/or anti-impulsive action.
Male mice of the NMRI strain weighing from 20 to 25 g on the day of the experiment are placed individually in Macrolon boxes containing 5 cm of sawdust and covered with a perforated plexiglass plate. Twenty-four “tiger's eye” glass marbles are evenly distributed on the sawdust at the periphery of the box. At the end of 30 minutes' free exploration, the animals are removed from the box and the number of buried marbles is counted.

The next assay addresses α2-adrenergic receptors. As to the kind of experiment: Affinity for α2-adrenergic receptors, competition with [3H]-RX 821,002. The format is binding. As to conditions: rat cerebral cortex membranes, 0.4 nM [3H]-RX 821,002, 60 minutes at 22° C. How it is done:
The affinity was determined by competition experiments with [^3H]-RX 821,002. The membranes are prepared from the cerebral cortex of the rat and are incubated in triplicate with 0.4 nM [^3H]-RX 821,002 and the compound being tested in a final volume of 1.0 ml, for 60 minutes at 22° C. The incubation buffer contains […] TRIS-HCl (pH 7.5), 1 mM EDTA and 100 μM GppNHp. The non-specific binding is determined using 10 μM phentolamine.
Data Analysis: At the end of the incubation, the incubation medium is filtered through WHATMAN GF/B filters impregnated with 0.1% of polyethylenimine and washed three times with 5 ml of cooled buffer. The radioactivity retained on the filters is determined by liquid scintillation counting. The binding isotherms are analysed by non-linear regression.

A word on the pKi: it is −log10 of the Ki, conventionally taken in molar units. Low values mean a high Ki, high ones a low Ki. With `Cc1nc2ccccn2c(=O)c1CCN1CC2COc3ccc4ccccc4c3C2C1.O=C(O)/C=C/C(=O)O` (stereo not shown) [Example 3, 3-[2-(1,3a,4,11c-Tetrahydrobenzo[5,6]chromeno[3,4-c]pyrrol-2(3H)-yl)-ethyl]-2-methyl-4H-pyrido[1,2-a]pyrimidin-4-one Fumarate], the ED50 at 5-HT2c receptors turned out to be 2.6 mg/kg. In addition, the “inhibitory dose 50 (ID50), number and duration of attacks” value with male CD-1 mice was 7 mg/kg. Further, the “inhibitory dose 50 (ID50), spontaneous marble-burying behaviour” value in assay [1] stood at 4.1 mg/kg. In addition, at α2-adrenergic receptors, the pKi came out at 7.5.
